Measured values: paper PMC6199744, “Development of Chemical Proteomics for the Folateome and Analysis of the Kinetoplastid Folateome” (ACS Infectious Diseases, 2018)
“And” between values parts separate entries of the source, which are not always exact repeats. Equal values may be shown once. Read-outs that look alike come from different tables or passages of the source.

System: L. major lysate proteins
Experiment: Multitargeted bead mixture chemoproteomics, single concentration competition, proteome-wide
Format: binding
Conditions: for fold change: vehicle control = 1

SMILES: Nc1nc2c(c(=O)[nH]1)N(C=O)C(CNc1ccc(C(=O)N[C@@H](CCC(=O)O)C(=O)O)cc1)CN2 (some centres unmarked) [LEU, leucovorin]
- fold change relative to vehicle control: 1.05 and 1.2 and 1.04
- fold change vs vehicle control: 0.97 and 1.04
- fold change vs vehicle control (protein CLI00016468.1 KINETOPLASTID MEMBRANE PROTEIN-11): 0.87
- fold change vs vehicle control (protein LINJ.03.0240 RIBOSOMAL PROTEIN L38, PUTATIVE): 0.99
- fold change vs vehicle control (protein LINJ.11.0780 40S RIBOSOMAL PROTEIN S21, PUTATIVE): 1.06
- fold change (protein LINJ.11.0960 40S RIBOSOMAL PROTEIN S5): 1.08
- fold change vs vehicle control (protein LINJ.13.0990 PROTEASOME REGULATORY ATPASE SUBUNIT 2, PUTATIVE): 0.99
- fold change vs vehicle control (protein LINJ.15.0330 RIBONUCLEOPROTEIN P18, MIT[…], PUTATIVE): 1.01
- fold change (protein LINJ.19.0090 FIBRILLARIN, PUTATIVE): 0.98
- fold change relative to vehicle control (protein LINJ.23.0860, 3-KETOACYL-COA THIOLASE, PUTATIVE): 1.25
- fold change relative to vehicle control (protein LINJ.24.2300, 60S RIBOSOMAL PROTEIN L12, PUTATIVE): 1.07
- fold change vs vehicle control (protein LINJ.25.2230 SUCCINYL-COA […] SUBUNIT, PUTATIVE): 1.12
- fold change vs vehicle control (protein LINJ.26.1630 40S RIBOSOMAL PROTEIN S33, PUTATIVE): 0.97
- fold change vs vehicle control (protein LINJ.28.1100 RIBOSOMAL PROTEIN S20, PUTATIVE): 0.97
- fold change relative to vehicle control (protein LINJ.28.1940, R[…] A, 51KDA SUBUNIT, PUTATIVE): 1.01
- fold change (protein LINJ.28.2280 DYNEIN LIGHT CHAIN LC6, FLAGELLAR OUTER ARM, PUTATIVE): 0.84
- fold change (protein LINJ.28.2870 PROTEIN PHOSPHATASE 4 CATALYTIC SUBUNIT, PUTATIVE): 0.86
- fold change relative to vehicle control (protein LINJ.31.1600, […] OXIDASE VIII (COX VIII), PUTATIVE): 0.98
- fold change relative to vehicle control (protein LINJ.33.1730, CYCLOPHILIN 4, PUTATIVE): 1.85
- fold change vs vehicle control (protein LINJ.34.0670 PROTEASOME REGULATORY NON-ATP-ASE SUBUNIT 11, PUTATIVE,19S PROTEASOME REGULATORY SUBUNIT): 0.93
- fold change vs vehicle control (protein LINJ.36.0780 PROTEIN KINASE, PUTATIVE,MITOGEN-ACTIVATED PROTEIN KINASE, PUTATIVE): 0.84
- fold change relative to vehicle control (protein LINJ.36.3960, BASIC TRANSCRIPTION FACTOR 3A, PUTATIVE): 2.31
- fold change relative to vehicle control (protein LINJ.36.4080, HY[…], CONSERVED): 1.26
- fold change (protein LINJ.36.4180 HS1VU COMPLEX PROTEOLYTIC SUBUNIT-LIKE): 0.87
- fold change vs vehicle control (protein LINJ.[…] LONG-CHAIN-FATTY-ACID-COA LIGASE, PUTATIVE): 1.05
- fold change (protein LMJF.01.0570 TRIC[…], PUTATIVE): 0.89
- fold change relative to vehicle control (protein LMJF.03.0200, DELTA-1-PYRROLINE-5-CARBOXYLATE DEHYDROGENASE, PUTATIVE): 1.13
- fold change (protein LMJF.03.0230 LONG CHAIN FATTY ACYL COA SYNTHETASE, PUTATIVE): 0.93
- fold change (protein LMJF.03.0980 ELONGATION INITIATION FACTOR 2 ALPHA SUBUNIT, PUTATIVE): 1
- fold change vs vehicle control (protein LMJF.04.0630 HY[…], CONSERVED): 1.02
- fold change vs vehicle control (protein LMJF.04.1230 actin): 0.94
- fold change (protein LMJF.05.0100 PHOSPHOPROTEIN PHOSPHATASE, PUTATIVE): 0.74
- fold change (protein LMJF.05.0280 PROTEIN TYROSINE PHOSPHATASE, PUTATIVE): 0.85
- fold change (protein LMJF.05.0510 ATPASE ALPHA SUBUNIT): 1
- fold change (protein LMJF.05.1040 STOMATIN-LIKE PROTEIN): 0.94
- fold change (protein LMJF.06.0650 LANOSTEROL SYNTHASE, PUTATIVE): 0.97
- fold change vs vehicle control (protein LMJF.07.0700 TOPOISOMERASE-RELATED FUNCTION PROTEIN-LIKE PROTEIN): 1.01
- fold change (protein LMJF.07.1000 RNA BINDING PROTEIN-LIKE PROTEIN): 1.02
- fold change relative to vehicle control (protein LMJF.07.1140, PEPTIDE METHIONINE SULFOXIDE REDUCTASE-LIKE): 1.3
- fold change (protein LMJF.08.0510 RIBOSE-PHOSPHATE PYROPHOSPHOKINASE, PUTATIVE): 0.82
- fold change vs vehicle control (protein LMJF.08.0550 T[…]-LIKE PROTEIN): 1.05
- fold change relative to vehicle control (protein LMJF.08.1030, cathepsin L-like protease): 1.06
- fold change vs vehicle control (protein LMJF.08.1100 HYPOTHETICAL PROTEIN, CONSERVED): 0.91
- fold change vs vehicle control (protein LMJF.09.1010 HYPOTHETICAL PROTEIN, CONSERVED): 0.98
- fold change relative to vehicle control (protein LMJF.09.1120, MIT[…] BINDING PROTEIN 2,MRP2, GBP25): 1.22
- fold change vs vehicle control (protein LMJF.09.1260 HY[…], CONSERVED): 1.02
- fold change (protein LMJF.10.0210 NUCLEOLAR PROTEIN, PUTATIVE): 0.98
- fold change vs vehicle control (protein LMJF.10.0310 PROTEIN TRANSPORT PROTEIN SEC23, PUTATIVE): 1.08
- fold change (protein LMJF.11.0590 3-[…]-COA C[…] SUBUNIT, PUTATIVE): 0.98
- fold change relative to vehicle control (protein LMJF.11.0630, AMINOPEPTIDASE, PUTATIVE,METALLO-PEPTIDASE, CLAN MF, FAMILY M17): 1.23
- fold change vs vehicle control (protein LMJF.11.1050 PRETRANSLOCATION PROTEIN, ALPHA SUBUNIT, PUTATIVE,SEC61-LIKE (PRETRANSLOCATION PROCESS) PROTEIN, PUTATIVE): 0.89
- fold change (protein LMJF.11.1160 PROTEIN TRANSPORT PROTEIN SEC31, PUTATIVE): 0.83
- fold change (protein LMJF.12.0030 PROTEASOME BETA-1 SUBUNIT, PUTATIVE): 0.95
- fold change vs vehicle control (protein LMJF.12.0210 […] […]1L8 3, PUTATIVE): 1.05
- fold change relative to vehicle control (protein LMJF.12.0530, GLUCOSE-6-PHOSPHATE ISOMERASE): 1.53
- fold change (protein LMJF.12.0630 ALANINE AMINOTRANSFERASE): 0.86
- fold change vs vehicle control (protein LMJF.13.1230 40S RIBOSOMAL PROTEIN S4, PUTATIVE): 1.16
- fold change vs vehicle control (protein LMJF.14.0310 […] 3 SUBUNIT, PUTATIVE): 1.04
- fold change (protein LMJF.14.0660 FATTY ACID ELONGASE, PUTATIVE): 0.88
- fold change (protein LMJF.14.0670 FATTY ACID ELONGASE, PUTATIVE): 0.9
- fold change vs vehicle control (protein LMJF.14.0680 FATTY ACID ELONGASE, PUTATIVE): 1.06
- fold change (protein LMJF.14.0990 ADP/ATP MITOCHONDRIAL CARRIER-LIKE PROTEIN): 0.97
- fold change vs vehicle control (protein LMJF.14.1160 ENOLASE): 1.01
- fold change (protein LMJF.14.1440 HYPOTHETICAL PROTEIN, CONSERVED (cytoskeleton associated protein, putative)): 0.9
- fold change (protein LMJF.15.0040 HYPOTHETICAL PROTEIN, CONSERVED (Possible lysine decarboxylase, putative)): 0.89
